Assay results from patent US4130709A, “Pleuromutilin glycoside derivatives” (Eli Lilly and Company, priority 1977, dated 1978).
Converted amounts (≈) assume the structure as drawn.

Key:
Format in all cases: cell-based
[1] = system: Staphylococcus aureus (H-Heatley) NRRL B-314; assay: in vitro turbidometric assay (Autoturb Microbiological Assay System) against Staphylococcus aureus; conditions: nutrient broth pH 7, approximately 4 hours at 37° C., A-40104 factor A as standard
Method: The compounds are conveniently tested against a typical gram-positive organism, Staphylococcus aureus, using a turbidometric assay on a semi-automated system (Autoturb Microbiological Assay System, Elanco) described by N. R. Kuzel and F. W. Kavanagh in J. Pharmaceut. Sci, 60 (5), 764 and 767 (1971). In testing these compounds, the following parameters were used: Staphylococcus aureus (H-Heatley) NRRL B-314 in a nutrient broth medium (pH 7), incubated for approximately 4 hours at 37° C. Test samples and A-40104 factor A, which is used as a standard, were dissolved in water. The standard was presented to the Autoturb carrousel at concentrations of 1.25, 2.50, 3.75, 5.00 and 6.25 mcg/ml. Test compounds were diluted to contain approximately 2.5 to 5.0 mcg of activity per ml, as presented to the carrousel. The units of activity of some of the typical compounds of this invention (R^2 =H in group tested) in this in vitro assay are summarized in Table I

Actinomyces israelii = assay: standard agar-dilution test, anaerobic bacteria; conditions: 24-hour incubation
Clostridium perfringens = assay: microbe, parasite or virus in culture; conditions: 24 h
[2] = system: Bacteroides thetaiotaomicron; assay: standard agar-dilution test, anaerobic bacteria; conditions: 24-hour incubation
Method: (§1) Table IV summarizes the activity of typical compounds of this invention, as determined by the standard agar-dilution test.
(§2) *Endpoint read after 24-hour incubation

Clostridium septicum = assay: standard agar-dilution test, anaerobic bacteria; conditions: 24-hour incubation
Method: as §1, §2

Eubacterium aerofaciens = assay: standard agar-dilution test, anaerobic bacteria; conditions: Collinsella aerofaciens, 24 h
[3] = system: Peptococcus asaccharolyticus; assay: standard agar-dilution test, anaerobic bacteria; conditions: Peptoniphilus asaccharolyticus, 24-hour incubation
Peptococcus prevoti = assay: standard agar-dilution test, anaerobic bacteria; conditions: Peptococcus prevoti; 24-hour incubation; read-out: MIC
[4] = system: Peptostreptococcus anaerobius; assay: standard agar-dilution test, anaerobic bacteria; conditions: 24-hour incubation
[5] = system: Peptostreptococcus intermedius; assay: standard agar-dilution test, anaerobic bacteria; conditions: Peptostreptococcus intermedius; 24-hour incubation; read-out: MIC
Bacteroides fragilis 111 = assay: standard agar-dilution test, anaerobic bacteria; conditions: Bacteroides fragilis 111; 24-hour incubation; read-out: MIC
[6] = system: Bacteroides fragilis 1877; assay: standard agar-dilution test, anaerobic bacteria; conditions: Bacteroides fragilis 1877; 24-hour incubation; read-out: MIC
[7] = system: Bacteroides fragilis 1936B; assay: standard agar-dilution test, anaerobic bacteria; conditions: Bacteroides fragilis 1936B; 24-hour incubation; read-out: MIC
[8] = system: Bacteroides melaninogenicus 1856/28; assay: standard agar-dilution test, anaerobic bacteria; conditions: Prevotella intermedia; Bacteroides melaninogenicus 1856/28; 24-hour incubation; read-out: MIC
[9] = system: Bacteroides melaninogenicus 2736; assay: standard agar-dilution test, anaerobic bacteria; conditions: Bacteroides melaninogenicus 2736; 24-hour incubation; read-out: MIC
Bacteroides vulgatis = assay: standard agar-dilution test, anaerobic bacteria; conditions: Bacteroides vulgatis; 24-hour incubation; read-out: MIC
Bacteroides corrodens = assay: standard agar-dilution test, anaerobic bacteria; conditions: Eikenella corrodens; Bacteroides corrodens; 24-hour incubation; read-out: MIC
Fusobacterium symbiosum = assay: standard agar-dilution test, anaerobic bacteria; conditions: Fusobacterium, 24 h
[10] = system: Fusobacterium necrophorum; assay: standard agar-dilution test, anaerobic bacteria; conditions: 24-hour incubation, read-out: MIC
Spiroplasma citri = assay: in vitro inhibition of Spiroplasma citri measured by a color reaction; parameters: key to Activity (color reaction): Red (R) includes complete inhibition; red-orange (RO) indicates partial inhibition; yellow (Y) indicates no inhibition
Method: In another important aspect, the compounds of this invention are active against Spiroplasmas. Spiroplasma citri is the causative agent of citrus-stubborn disease; another Spiroplasma, corn-stunt Spiroplasma, affects the growth of corn. Table VII summarizes the in vitro activity of representative compounds of the present invention (R^2 =H in this group) against Spiroplasma citri. In this test, inhibition of S. citri is measured by a color reaction. Red (R) includes complete inhibition; red-orange (RO) indicates partial inhibition; and yellow (Y) indicates no inhibition.

CC[C@]1(C)C[C@@H](OC(=O)CS[C@@H]2OC[C@@H](OC(C)=O)[C@@H](OC(C)=O)[C@H]2OC(C)=O)[C@]2(C)[C@H](C)CC[C@]3(CCC(=O)[C@H]32)[C@@H](C)[C@@H]1O
Units of Activity [1]: 480 to 500 µg/mg

C=C[C@]1(C)C[C@@H](OC(=O)CO[C@@H]2OC[C@@H](O)[C@H](O)[C@H]2O)[C@]2(C)[C@H](C)CC[C@]3(CCC(=O)[C@H]32)[C@@H](C)[C@@H]1O [A-40104 factor A, reference compound]
Units of Activity [1]: 446 to 452 µg/mg

CC[C@]1(C)C[C@@H](OC(=O)CS[C@@H]2O[C@H](COC(C)=O)[C@@H](OC(C)=O)[C@H](OC(C)=O)[C@H]2OC(C)=O)[C@]2(C)[C@H](C)CC[C@]3(CCC(=O)[C@H]32)[C@@H](C)[C@@H]1O [Compound 4, 14-deoxy-14-[(2,3,4,6-tetra-O-acetyl-β-D-glucopyranosyl)thioacetoxy]-19,20-dihydromutilin]
Units of Activity [1]: 203 to 220 µg/mg
MIC (Actinomyces israelii): ≤ 0.5 µg/mL
MIC (Clostridium perfringens): > 128 µg/mL
MIC [2]: 64 µg/mL (≈ 88 µM)
MIC (Clostridium septicum): 4 µg/mL (≈ 5.5 µM)
MIC (Eubacterium aerofaciens): > 128 µg/mL
MIC [3]: ≤ 0.5 µg/mL
MIC (Peptococcus prevoti): 8 µg/mL (≈ 11 µM)
MIC [4]: 1 µg/mL (≈ 1.38 µM)
MIC [5]: 2 µg/mL (≈ 2.75 µM)
MIC (Bacteroides fragilis 111): 32 µg/mL (≈ 44 µM)
MIC [6]: 32 µg/mL (≈ 44 µM)
MIC [7]: 64 µg/mL (≈ 88 µM)
MIC [8]: 8 µg/mL (≈ 11 µM)
MIC [9]: 4 µg/mL (≈ 5.5 µM)
MIC (Bacteroides vulgatis): 32 µg/mL (≈ 44 µM)
MIC (Bacteroides corrodens): 32 µg/mL (≈ 44 µM)
MIC (Fusobacterium symbiosum): 128 µg/mL (≈ 176 µM)
MIC [10]: ≤ 0.5 µg/mL
Activity (color reaction) (Spiroplasma citri; 0.01 ppm): Y
Activity (color reaction) (Spiroplasma citri; 0.05 ppm): R
Activity (color reaction) (Spiroplasma citri; 0.1 ppm): R
Activity (color reaction) (Spiroplasma citri; 1.0 ppm): R

CC[C@]1(C)C[C@@H](OC(=O)CO[C@H]2O[C@H](CO)[C@@H](O)[C@H](O)[C@H]2O)[C@]2(C)[C@H](C)CC[C@]3(CCC(=O)[C@H]32)[C@@H](C)[C@@H]1O [Example 2, 14-deoxy-14-[(α-D-glucopyranosyl)oxyacetoxy]-19,20-dihydromutilin]
Units of Activity [1]: < 100 µg/mg

C=C[C@]1(C)C[C@@H](OC(=O)CS[C@@H]2OC[C@@H](OC(C)=O)[C@@H](OC(C)=O)[C@@H]2OC(C)=O)[C@]2(C)[C@H](C)CC[C@]3(CCC(=O)[C@H]32)[C@@H](C)[C@@H]1O [Example 20, 14-Deoxy-14-[(2,3,4-tri-O-acetyl-β-D-arabinopyranosyl)thioacetoxy]mutilin]
Units of Activity [1]: 430 µg/mg

CC[C@]1(C)C[C@@H](OC(=O)CS[C@@H]2OC[C@@H](OC(C)=O)[C@@H](OC(C)=O)[C@@H]2OC(C)=O)[C@]2(C)[C@H](C)CC[C@]3(CCC(=O)[C@H]32)[C@@H](C)[C@@H]1O [Example 21, 14-Deoxy-14-[(2,3,4-tri-O-acetyl-β-D-arabinopyranosyl)thioacetoxy]-19,20-dihydromutilin]
Units of Activity [1]: 380 µg/mg

C=C[C@]1(C)C[C@@H](OC(=O)CS[C@@H]2OC[C@@H](O)[C@@H](O)[C@@H]2O)[C@]2(C)[C@H](C)CC[C@]3(CCC(=O)[C@H]32)[C@@H](C)[C@@H]1O [Example 22, 14-Deoxy-14-[(β-D-arabinopyranosyl)thioacetoxyl]mutilin]
Units of Activity [1]: 380 µg/mg

CC[C@]1(C)C[C@@H](OC(=O)CS[C@@H]2OC[C@@H](O)[C@@H](O)[C@@H]2O)[C@]2(C)[C@H](C)CC[C@]3(CCC(=O)[C@H]32)[C@@H](C)[C@@H]1O [Example 23, 14-deoxy-14-[(β-D-arabinopyranosyl)thioacetoxy]-19,20-dihydromutilin]
Units of Activity [1]: 420 µg/mg

C=C[C@]1(C)C[C@@H](OC(=O)CS[C@H]2OC[C@@H](OC(C)=O)[C@@H](OC(C)=O)[C@H]2OC(C)=O)[C@]2(C)[C@H](C)CC[C@]3(CCC(=O)[C@H]32)[C@@H](C)[C@@H]1O [Example 36 α-anomer, 14-deoxy-14-[(2,3,4-tri-O-acetyl-α-D-ribopyranosyl)thioacetoxy]mutilin]
Units of Activity [1]: 50 µg/mg

C=C[C@]1(C)C[C@@H](OC(=O)CS[C@H]2OC[C@@H](O)[C@@H](O)[C@H]2O)[C@]2(C)[C@H](C)CC[C@]3(CCC(=O)[C@H]32)[C@@H](C)[C@@H]1O [Example 37, 14-Deoxy-14-[(α-D-ribopyranosyl)thioacetoxy]-mutilin]
Units of Activity [1]: 350 µg/mg

C=C[C@]1(C)C[C@@H](OC(=O)CS[C@@H]2OC[C@@H](O)[C@@H](O)[C@H]2O)[C@]2(C)[C@H](C)CC[C@]3(CCC(=O)[C@H]32)[C@@H](C)[C@@H]1O [Example 38, 14-Deoxy-14-[(β-D-ribopyranosyl)thioacetoxy]-mutilin]
Units of Activity [1]: 1070 µg/mg

CC[C@]1(C)C[C@@H](OC(=O)CS[C@H]2OC[C@@H](O)[C@@H](O)[C@H]2O)[C@]2(C)[C@H](C)CC[C@]3(CCC(=O)[C@H]32)[C@@H](C)[C@@H]1O [Example 39, 14-Deoxy-14-[(α-D-ribopyranosyl)thioacetoxy]-19,20-dihydromutilin]
Units of Activity [1]: 430 to 433 µg/mg

CC[C@]1(C)C[C@@H](OC(=O)CS[C@@H]2OC[C@@H](O)[C@@H](O)[C@H]2O)[C@]2(C)[C@H](C)CC[C@]3(CCC(=O)[C@H]32)[C@@H](C)[C@@H]1O [Example 40, 14-Deoxy-14-[(β-D-ribopyranosyl)thioacetoxy]-19,20-dihydromutilin]
Units of Activity [1]: 1500 µg/mg

C=C[C@]1(C)C[C@@H](OC(=O)CS[C@H]2O[C@H](COC(C)=O)[C@@H](OC(C)=O)[C@H]2OC(C)=O)[C@]2(C)[C@H](C)CC[C@]3(CCC(=O)[C@H]32)[C@@H](C)[C@@H]1O [Example 41 α-anomer, 14-deoxy-14-[(2,3,5-tri-O-acetyl-α-D-ribofuranosyl)thioacetoxy]mutilin]
Units of Activity [1]: about 200 mcg/mg

C=C[C@]1(C)C[C@@H](OC(=O)CS[C@@H]2O[C@H](COC(C)=O)[C@@H](OC(C)=O)[C@H]2OC(C)=O)[C@]2(C)[C@H](C)CC[C@]3(CCC(=O)[C@H]32)[C@@H](C)[C@@H]1O [Example 41 β-anomer, 14-deoxy-14-[(2,3,5-tri-O-acetyl-β-D-ribofuranosyl)thioacetoxy]mutilin]
Units of Activity [1]: about 450 mcg/mg

C=C[C@]1(C)C[C@@H](OC(=O)CS[C@@H]2O[C@H](COC(C)=O)[C@@H](O[C@H]3O[C@H](COC(C)=O)[C@@H](OC(C)=O)[C@H](OC(C)=O)[C@H]3OC(C)=O)[C@H](OC(C)=O)[C@H]2OC(C)=O)[C@]2(C)[C@H](C)CC[C@]3(CCC(=O)[C@H]32)[C@@H](C)[C@@H]1O [Example 52, 14-Deoxy-14-[(4-O-(2,3,4,6-tetra-O-acetyl-α-D-glucopyranosyl)-2,3,6-tri-O-acetyl-β-D-glucopyranosyl)thioacetoxy]mutilin]
Units of Activity [1]: 40 µg/mg

CC[C@]1(C)C[C@@H](OC(=O)CS[C@@H]2O[C@H](COC(C)=O)[C@@H](O[C@H]3O[C@H](COC(C)=O)[C@@H](OC(C)=O)[C@H](OC(C)=O)[C@H]3OC(C)=O)[C@H](OC(C)=O)[C@H]2OC(C)=O)[C@]2(C)[C@H](C)CC[C@]3(CCC(=O)[C@H]32)[C@@H](C)[C@@H]1O [Example 53]
Units of Activity [1]: 28 µg/mg
